Here are results for 10 molecules from patent publication US11174268B2, “Benzenesulfonamide compouds and their use as therapeutic agents” (Xenon Pharmaceuticals Inc., priority 2016, dated 2021).

pIC50: −log10 of the molar value. Counter-ions that a name gives are not always drawn. Like-named read-outs stand apart in the source and are kept apart here.

Data set [1] deals with NaV1.5 (Homo sapiens (Human), UniProt Q14524). Briefly: Sodium Influx Assay (Flux), NaV1.5.
For data set [2], the target named is NaV1.6 (Homo sapiens (Human), UniProt Q9UQD0). Briefly: Sodium Influx Assay (Flux), NaV1.6.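 Further: Tetracycline-induced cells, compounds applied for one hour at room temperature with modulators holding channels open, IC50 from percent inhibition of sodium influx.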 The data set is classed as cell-based. As to conditions: Trex HEK293 cells, ANG2 dye, inactivated state.
In data set [3] the target is NaV1.1 (Homo sapiens (Human), UniProt P35498). Kind of data set: Sodium Influx Assay (Flux), NaV1.1.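 Further: channels co-expressed with human β1 subunit and held open by modulators, cells exposed to compounds for one hour at room temperature, IC50 from percent inhibition of influx.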 Particulars: Trex HEK293 cells, ANG2 dye, inactivated state. It is filed as cell-based.
Setting [4] is: read-out: Flux NaV1.5 IC50, Trex HEK293 cells, ANG2 dye, inactivated state.

NaV1.5, sequence (Q14524 other isoform, or with tags, fused parts or gaps): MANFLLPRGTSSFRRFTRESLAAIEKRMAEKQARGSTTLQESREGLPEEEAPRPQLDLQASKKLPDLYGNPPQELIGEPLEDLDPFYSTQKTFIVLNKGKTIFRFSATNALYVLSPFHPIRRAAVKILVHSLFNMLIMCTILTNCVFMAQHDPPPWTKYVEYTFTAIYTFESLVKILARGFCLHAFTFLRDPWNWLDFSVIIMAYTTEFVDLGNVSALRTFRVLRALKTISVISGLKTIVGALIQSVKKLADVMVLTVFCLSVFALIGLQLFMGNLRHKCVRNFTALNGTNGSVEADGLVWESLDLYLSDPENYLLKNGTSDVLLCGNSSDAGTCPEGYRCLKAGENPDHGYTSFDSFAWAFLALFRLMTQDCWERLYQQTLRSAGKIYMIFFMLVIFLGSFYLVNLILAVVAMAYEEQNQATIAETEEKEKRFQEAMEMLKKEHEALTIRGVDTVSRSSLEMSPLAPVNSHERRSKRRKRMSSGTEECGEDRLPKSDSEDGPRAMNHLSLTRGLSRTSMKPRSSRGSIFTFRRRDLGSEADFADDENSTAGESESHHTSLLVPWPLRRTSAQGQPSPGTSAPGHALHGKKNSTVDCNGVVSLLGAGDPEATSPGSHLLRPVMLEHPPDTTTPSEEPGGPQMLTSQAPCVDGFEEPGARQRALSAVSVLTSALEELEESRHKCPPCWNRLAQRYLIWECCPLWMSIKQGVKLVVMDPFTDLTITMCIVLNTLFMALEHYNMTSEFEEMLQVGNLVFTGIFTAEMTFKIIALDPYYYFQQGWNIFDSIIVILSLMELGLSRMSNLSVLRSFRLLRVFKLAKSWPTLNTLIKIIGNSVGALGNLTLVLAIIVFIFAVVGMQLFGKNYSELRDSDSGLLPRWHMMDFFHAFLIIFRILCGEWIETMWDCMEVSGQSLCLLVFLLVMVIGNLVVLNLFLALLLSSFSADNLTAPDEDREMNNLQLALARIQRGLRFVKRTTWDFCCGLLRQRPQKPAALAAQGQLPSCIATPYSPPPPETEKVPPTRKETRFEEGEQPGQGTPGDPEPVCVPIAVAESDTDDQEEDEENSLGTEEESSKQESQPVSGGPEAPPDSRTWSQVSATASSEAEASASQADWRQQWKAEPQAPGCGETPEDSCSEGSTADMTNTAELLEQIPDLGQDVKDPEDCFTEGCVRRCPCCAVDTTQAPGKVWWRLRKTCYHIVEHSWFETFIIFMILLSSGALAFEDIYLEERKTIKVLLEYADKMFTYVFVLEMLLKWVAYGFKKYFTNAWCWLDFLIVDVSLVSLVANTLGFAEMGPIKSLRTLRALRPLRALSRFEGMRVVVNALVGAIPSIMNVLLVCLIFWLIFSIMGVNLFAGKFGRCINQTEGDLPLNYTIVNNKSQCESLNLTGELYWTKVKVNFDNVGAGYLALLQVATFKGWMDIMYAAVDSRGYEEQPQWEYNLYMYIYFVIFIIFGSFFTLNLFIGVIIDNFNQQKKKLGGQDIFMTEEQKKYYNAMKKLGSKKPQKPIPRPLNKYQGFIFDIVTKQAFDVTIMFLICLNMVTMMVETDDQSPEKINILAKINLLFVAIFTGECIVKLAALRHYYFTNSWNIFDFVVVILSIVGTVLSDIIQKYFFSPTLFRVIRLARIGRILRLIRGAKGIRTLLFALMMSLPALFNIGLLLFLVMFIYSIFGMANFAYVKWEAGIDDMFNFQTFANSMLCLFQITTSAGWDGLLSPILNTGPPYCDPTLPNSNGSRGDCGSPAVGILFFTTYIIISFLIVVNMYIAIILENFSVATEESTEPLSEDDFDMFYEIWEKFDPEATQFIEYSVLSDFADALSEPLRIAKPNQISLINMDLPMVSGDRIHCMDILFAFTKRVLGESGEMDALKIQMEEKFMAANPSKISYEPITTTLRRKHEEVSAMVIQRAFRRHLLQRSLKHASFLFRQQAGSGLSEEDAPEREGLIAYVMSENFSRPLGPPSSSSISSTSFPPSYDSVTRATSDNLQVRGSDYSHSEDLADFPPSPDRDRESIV

Consider `CC(C)CN(C)Cc1cccc(F)c1CNc1cc(F)c(S(=O)(=O)Nc2cscn2)c(F)c1` [Example 175, 2,6-difluoro-4-((2-fluoro-6-((isobutyl(methyl)amino)methyl)benzyl)amino)-N-(thiazol-4-yl)benzenesulfonamide], for which the pIC50 (in general, the IC50 on a negative log10 scale, so that one unit is a factor of ten) in data set [1] (setting [4]) is 4.84; in data set [2], 6.47; in data set [3], 4.97.
In the case of `O=S(=O)(Nc1cscn1)c1c(F)cc(NCc2c(F)cccc2CN2CC(O)(C(F)(F)F)C2)cc1F` [Example 176, 2,6-difluoro-4-((2-fluoro-6-((3-hydroxy-3-(trifluoromethyl)azetidin-1-yl)methyl)benzyl)amino)-N-(thiazol-4-yl)benzenesulfonamide formate], the results for the pIC50 in data set [1] (setting [4]), in data set [2] and in data set [3] were 4.77, 6.17 and 5.24, respectively.
For `O=S(=O)(Nc1cscn1)c1c(F)cc(NCc2c(F)cccc2CNC2CCC2)cc1F` [Example 177, 4-((2-((cyclobutylamino)methyl)-6-fluorobenzyl)amino)-2,6-difluoro-N-(thiazol-4-yl)benzenesulfonamide formate] the same measures were 4.65, 7.34 and 5.27.
Consider `CC(C)(C)NCc1cccc(F)c1CNc1cc(F)c(S(=O)(=O)Nc2cscn2)c(F)c1` [Example 178, 4-((2-((tert-butylamino)methyl)-6-fluorobenzyl)amino)-2,6-difluoro-N-(thiazol-4-yl)benzenesulfonamide formate], for which the values for the pIC50 in data set [1] (setting [4]), in data set [2] and in data set [3] were 4.52, 6.58 and 4.87, respectively.
For `CN(Cc1cccc(F)c1CNc1cc(F)c(S(=O)(=O)Nc2cscn2)c(F)c1)C1CCC1` [Example 179, 4-((2-((cyclobutyl(methyl)amino)methyl)-6-fluorobenzyl)amino)-2,6-difluoro-N-(thiazol-4-yl)benzenesulfonamide formate], the results for the pIC50 in data set [1] (setting [4]), in data set [2] and in data set [3] were 5.19, 7.10 and 5.34, respectively.
With `CC1(F)CN(Cc2cccc(F)c2CNc2cc(F)c(S(=O)(=O)Nc3cscn3)c(F)c2)C1` [Example 180, 2,6-difluoro-4-((2-fluoro-6-((3-fluoro-3-methylazetidin-1-yl)methyl)benzyl)amino)-N-(thiazol-4-yl)benzenesulfonamide formate], the values for the negative-log IC50 (pIC50) in data set [1] (setting [4]), in data set [2] and in data set [3] were 4.62, 6.78 and 4.66, respectively.
As for `CN(Cc1cccc(F)c1CNc1cc(F)c(S(=O)(=O)Nc2cscn2)c(F)c1)C1COC1` [Example 181, 2,6-difluoro-4-((2-fluoro-6-((methyl(oxetan-3-yl)amino)methyl)benzyl)amino)-N-(thiazol-4-yl)benzenesulfonamide formate], the figures for the pIC50 in data set [1] (setting [4]), in data set [2] and in data set [3] were 4.52, 5.53 and 4.98, respectively.
As for `CCN(CC)Cc1cccc(F)c1CNc1cc(F)c(S(=O)(=O)Nc2cscn2)c(F)c1` [Example 183, 4-((2-((diethylamino)methyl)-6-fluorobenzyl)amino)-2,6-difluoro-N-(thiazol-4-yl)benzenesulfonamide formate], the results for the pIC50 in data set [1] (setting [4]), in data set [2] and in data set [3] were 4.55, 7.44 and 4.52, respectively.
As to `CCC(C)(C)N(C)Cc1cccc(F)c1CNc1cc(F)c(S(=O)(=O)Nc2cscn2)c(F)c1` [Example 184, 2,6-difluoro-4-((2-fluoro-6-((methyl(tert-pentyl)amino)methyl)benzyl)amino)-N-(thiazol-4-yl)benzenesulfonamide formate], the pIC50 in data set [1] was no more than 4.52; in data set [2], 6.48; in data set [3], no more than 4.52.
With `O=S(=O)(Nc1cscn1)c1c(F)cc(NCc2c(F)cccc2CN2CC3(CC3)C2)cc1F` [Example 186, 4-((2-((5-azaspiro[2.3]hexan-5-yl)methyl)-6-fluorobenzyl)amino)-2,6-difluoro-N-(thiazol-4-yl)benzenesulfonamide formate], the figures for the negative-log IC50 (pIC50) in data set [1] (setting [4]), in data set [2] and in data set [3] were 5.04, 7.72 and 4.81, respectively.
